The values that follow come from ChEMBL document CHEMBL4602712, “Synthesis and Evaluation of Noncovalent Naphthalene-Based KEAP1-NRF2 Inhibitors” (ACS Med Chem Lett, 2020).

Each structure is given as a SMILES string. A value given as a limit tells only on which side of the number the result lay.

Broadly, the IC50 is the concentration at which inhibition is half-maximal.

The target in this experiment is Kelch-like ECH-associated protein 1 (Homo sapiens, UniProt Q14145). The experiment can be described thus: Inhibition of FITC-9mer Nrf2 peptide binding to recombinant human KEAP1 Kelch domain (321 to 609 residues) expressed in Escherichia coli BL21 (DE3) by fluorescence polarization assay. (In general: Polarisation of emitted light reports the rotation of a fluorescent probe.)
Sequence of Kelch-like ECH-associated protein 1 (Q14145 whole entry, the tested form may be a part): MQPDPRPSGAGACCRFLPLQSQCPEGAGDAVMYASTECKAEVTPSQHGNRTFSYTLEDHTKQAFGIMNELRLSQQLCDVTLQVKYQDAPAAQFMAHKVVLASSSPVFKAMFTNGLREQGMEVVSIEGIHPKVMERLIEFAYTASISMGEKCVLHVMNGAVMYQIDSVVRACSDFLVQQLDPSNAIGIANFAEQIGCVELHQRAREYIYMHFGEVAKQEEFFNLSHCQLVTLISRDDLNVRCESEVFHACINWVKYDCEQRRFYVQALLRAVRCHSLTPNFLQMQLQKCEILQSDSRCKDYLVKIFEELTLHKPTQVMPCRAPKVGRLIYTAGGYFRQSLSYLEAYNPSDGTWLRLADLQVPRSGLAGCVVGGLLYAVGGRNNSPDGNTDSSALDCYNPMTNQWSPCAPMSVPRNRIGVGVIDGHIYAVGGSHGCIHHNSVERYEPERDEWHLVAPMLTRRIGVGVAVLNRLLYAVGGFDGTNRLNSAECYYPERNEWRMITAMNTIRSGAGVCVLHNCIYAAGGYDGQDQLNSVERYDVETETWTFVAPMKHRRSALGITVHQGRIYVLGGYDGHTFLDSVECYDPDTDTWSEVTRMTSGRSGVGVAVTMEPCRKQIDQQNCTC
On to `COc1ccc(S(=O)(=O)Cc2ccc(CS(=O)(=O)c3ccc(OC)cc3)c3ccccc23)cc1`, for which the IC50 is over 25 µM.
As for `COc1ccc(S(=O)(=O)Nc2ccc(/C=C/C(=O)O)c3ccccc23)cc1`, the IC50 is over 25 µM.
For `COc1ccc(S(=O)(=O)Nc2ccc(CCC(=O)O)c3ccccc23)cc1`, the IC50 is over 25 µM.
